Experiments:
[1] = system: human PMNs stimulated by IL-8; assay: Chemotaxis of human PMNs stimulated by IL-8 (48-well microchamber); assay type: cell-based; details: for activity on chemotaxis induced by IL-8, in words: Tables 1 and 2; for % inhibition of leucocyte chemotaxis: Table 3, diastereoisomers of ibuprophenoyl-alanine
Procedure: For in vitro evaluation of the compounds of the invention, polymorphonucleated leucocytes were used (hereinafter referred to as PMNs) isolated from heparinized human blood, taken from consenting healthy adults, by means of sedimentation on dextrane; the mononucleated cells were removed by means of Ficoll/Hypaque, whilst the red blood cells were eliminated by treatment with hypotonic solutions. The cell vitality of the PMNs was calculated by exclusion with Tripan blue, whilst the percentage of PMNs on the cytocentrifugate was estimated after staining with Diff Quinck., in accordance with the procedure described by W. J. Ming et al., J. Immunol., 138, 1469, 1987. In each of the experiments, which will be described in details below, the pre-incubations were carried out at a temperature of 37° C., observing incubation times of 10 minutes with the compounds under examination.
In the chemotaxis experiments and in those aimed at measuring the cytosol levels of the Ca^++ ion, recombinant human interleukin-8 (rhIL-8, Pepro Tech) was used; the lyophilized protein was dissolved in HBSS (Hank's balanced salts solution) at the concentration of 100 mcg/mL, and then diluted down to a concentration of 10 ng/mL in the chemotaxis experiments, to that a concentration of 25-50 ng/mL in the evaluation of the intracellular modifications of Ca^2+ (i.e. [Ca^2+]i) and to that a concentration of 400 ng/ml in the evaluation of tyrosine kinase activation.
During the chemotaxis assay (according to W. Falket et al., J. Immunol. Methods, 33, 239, 1980) PVP-free filters were used having a porosity of 5 mcm and microchambers made of plexiglas suitable for carrying out the replication.
The compounds being studied were added at one and the same concentration in the top-level wells that contained the suspension of PMNs, and in the wells of the bottom level that contained the vehicle to which IL-8 (or, if so desired, another stimulating agent) was added or otherwise.

[2] = system: TNF-α; details: in the presence of LPSs and of S-ketoprofen 10^−5 M; LPSs alone 10±5 ng/mL; cited from earlier work
[3] = system: TNF-α; assay: TNF-α production in murine macrophages stimulated by LPS or H2O2; assay type: cell-based; details: stimulated in murine macrophages by H2O2 and by liposaccharides
[4] = system: PGE2; assay: PGE2 synthesis in murine macrophages stimulated with lipopolysaccharides; assay type: cell-based; details: after stimulation with LPSs at 1 μg/mL
[5] = Table 2, compounds 10^−8 M, IL-8 10 ng/mL
[6] = Table 1, compound conc. 10^−8 M, IL-8 10 ng/mL

SMILES	% inhibition of chemotaxis of human PMNs stimulated by IL-8 (10 ng/mL) [1, 5] [%]	activity on chemotaxis induced by IL-8, in words [1]	further results
CC(C)Cc1ccc([C@@H](C)C(=O)NCCOCCO)cc1 [Compound 8, R(−)-2-[(4′-isobutyl)phenyl]-N-(2″-hydroxyethoxyethyl)propionamide]	40 ± 4	restored	
CC(C)Cc1ccc([C@@H](C)C(=O)N[C@H](C)C(=O)O)cc1 [Compound 6, (R,R′)-2-[(4′-isobutyl)phenyl]-N-(2″-carboxyethyl)propionamide]	−17 ± 6	inhibitory effect on chemotaxis	% inhibition of leucocyte chemotaxis [1]: −17 ± 6%
CC(C)Cc1ccc([C@@H](C)C(=O)NCC(=O)O)cc1 [Compound 4, R(−)-2-[(4′-isobutyl)phenyl]-N-carboxymethyl propionamide]	45 ± 8	inhibitory effect on chemotaxis	
CC(C)Cc1ccc([C@H](C)C(=O)N[C@@H](C)C(=O)O)cc1 [S,L, reference compound]			% inhibition of leucocyte chemotaxis [1]: 4 ± 13%
CC(C)Cc1ccc([C@H](C)C(N)=O)cc1 [(S)-2-(4-isobutyl-phenyl)-propionamide, reference compound]		altogether absent	% inhibition of chemotaxis of human PMNs stimulated by IL-8 (10 ng/mL) [1, 6]: −2 ± 8%
CC(C)Cc1ccc([C@@H](C)C(=O)N[C@@H](C)C(=O)O)cc1 [Compound 5]	65 ± 9	marked “pro-kinetic” paradox effect	inhibition of chemotaxis induced by IL-8, dose dependence ([1]; IL-8 10 ng/mL, concentration range from 10^−8 to 10^−10 M): inhibits, in a dose-dependent way; % inhibition of leucocyte chemotaxis [1]: 65 ± 9%
CC(C)Cc1ccc([C@@H](C)C(N)=O)cc1 [Compound 1, (R)-2-(4-isobutyl-phenyl)-propionamide, reference compound]	57 ± 12	active	% inhibition of chemotaxis of human PMNs stimulated by IL-8 (10 ng/mL) [1, 6]: 57 ± 12%
Cc1ccnc(NC(=O)[C@@H](C)c2ccc(CC(C)C)cc2)c1 [S(+)-2-[(4′-isobutyl)phenyl]-N-(4″-methyl-2″-pyridyl)propionamide, reference compound]			% inhibition of chemotaxis of human PMNs stimulated by IL-8 (10 ng/mL) ([1]; Table 4, IL-8 10 ng/mL): −3 ± 5%
C[C@H](C(=O)O)c1cccc(C(=O)c2ccccc2)c1 [S-ketoprofen]			TNF-α in the incubation medium [2]: 39 ± 5 ng/mL
CC(C)Cc1ccc([C@@H](C)C(=O)Nc2ccncc2)cc1 [Compound 12]	61 ± 8	good activity	
Cc1ccnc(NC(=O)[C@H](C)c2cccc(C(=O)c3ccccc3)c2)c1 [R(−)-2-[(5′-benzoyl)phenyl]-N-(4″methyl-2″-pyridyl)propionamide, reference compound]			% inhibition of chemotaxis of human PMNs stimulated by IL-8 (10 ng/mL) ([1]; Table 4, IL-8 10 ng/mL): −15 ± 25%
CC(C)Cc1ccc([C@@H](C)C(=O)Nc2ccccn2)cc1 [Compound 10, R(−)-2-(4′-isobutyl)phenyl-N-(2′-pyridyl)propionamide]	36 ± 6	good activity	
Cc1ccnc(NC(=O)[C@@H](C)c2cccc(C(=O)c3ccccc3)c2)c1 [S(+)-2-[(5′-benzoyl)phenyl]-N-(4″-methyl-2″-pyridyl)propionamide, reference compound]			% inhibition of chemotaxis of human PMNs stimulated by IL-8 (10 ng/mL) ([1]; Table 4, IL-8 10 ng/mL): −1 ± 10%
CC(C)Cc1ccc([C@H](C)C(=O)N[C@H](C)C(=O)O)cc1 [S,D, reference compound]			% inhibition of leucocyte chemotaxis [1]: 4 ± 19%
Cc1ccnc(NC(=O)[C@H](C)c2ccc(CC(C)C)cc2)c1 [R(−)-2-[(4′-isobutyl)phenyl]-N-(4″-methyl-2″-pyridyl)propionamide, reference compound]			% inhibition of chemotaxis of human PMNs stimulated by IL-8 (10 ng/mL) ([1]; Table 4, IL-8 10 ng/mL): −12 ± 2%
CC(C)Cc1ccc([C@@H](C)C(=O)N[C@@H](CO)C(=O)O)cc1 [Compound 7]	12 ± 4	decrease in the biological activity	
CC(C)Cc1ccc([C@@H](C)C(=O)NCCO)cc1 [Compound 3, R(−)-2-(4′-isobutyl)phenyl-N-(2′-hydroxyethyl)propionamide]	20 ± 11	decrease in the biological activity	
CC(C)Cc1ccc([C@@H](C)C(=O)Nc2cccnc2)cc1 [Compound 11, R(−)-2-[(4′-isobutyl)phenyl]-N-(3″-pyridyl)propionamide]	11 ± 10	poor activity	
CNC(=O)[C@H](C)c1ccc(CC(C)C)cc1 [Compound 2, R(−)-2-(4′-isobutyl)phenyl-N-methyl propionamide]	25 ± 9		production of TNF-α [3]: down-regulate the production of TNF-α; synthesis of PGE2 in the macrophages [4]: do not inhibit; % inhibition of leucocyte chemotaxis stimulated by IL-8 (10 ng/mL) ([1]; concentration of 10^−8 M): 25±9%
CC(C)Cc1ccc([C@@H](C)C(=O)Nc2ccccc2)cc1 [Compound 9, R(−)-2-(4′-isobutyl)phenyl-N-phenyl propionamide]	9 ± 10	poor activity	

From US7705050B2, “Amides, useful in the inhibition of IL-8-induced chemotaxis of neutrophils” (priority 2000, dated 2010)
